Assay results published in the NIST ThermoML archive (doi:10.1021/je300134c).

Test: xn = mol fraction of the nth substance listed
Settings: 101 kPa, Liquid; for speed of sound: Sing-around technique in a fixed-path interferometer; for mass density: Vibrating tube method

CCCCn1cc[n+](C)c1.O=S(=O)([O-])C(F)(F)F [1-butyl-3-methylimidazolium trifluoromethanesulfonate] + O
Settings	mass density [kg/m3]	speed of sound [m/s]
288.15 K, x1 = 0.05002	1122.78	1539.5
288.15 K, x1 = 0.09974	1178.77	1524.8
288.15 K, x1 = 0.1499	1211.09	1510.4
288.15 K, x1 = 0.3013	1257.47	1474.6
288.15 K, x1 = 0.3994	1272.13	1459
288.15 K, x1 = 0.4973	1281.71	1447.6
288.15 K, x1 = 0.5999	1289.22	1438
288.15 K, x1 = 0.6988	1294.59	1431.6
288.15 K, x1 = 0.8953	1302.01	1420.5
288.15 K, x1 = 1	1304.56	1416
298.15 K, x1 = 0.05002	1116.95	1538.2
298.15 K, x1 = 0.09974	1171.65	1514.3
298.15 K, x1 = 0.1499	1203.38	1494.8
298.15 K, x1 = 0.3013	1249.32	1453.8
298.15 K, x1 = 0.3994	1263.98	1437.3
298.15 K, x1 = 0.4973	1273.59	1425.5
298.15 K, x1 = 0.5999	1281.16	1415.7
298.15 K, x1 = 0.6988	1286.57	1408.8
298.15 K, x1 = 0.8953	1294.08	1397.7
298.15 K, x1 = 1	1296.67	1393
308.15 K, x1 = 0.05002	1110.67	1533.5
308.15 K, x1 = 0.09974	1164.25	1501.6
308.15 K, x1 = 0.1499	1195.48	1477.9
308.15 K, x1 = 0.3013	1241.1	1432.7
308.15 K, x1 = 0.3994	1255.79	1415.6
308.15 K, x1 = 0.4973	1265.46	1403.5
308.15 K, x1 = 0.5999	1273.1	1393.6
308.15 K, x1 = 0.6988	1278.56	1386.5
308.15 K, x1 = 0.8953	1286.15	1375.5
308.15 K, x1 = 1	1288.78	1370.7
318.15 K, x1 = 0.05002	1103.96	1525.8
318.15 K, x1 = 0.09974	1156.58	1486.9
318.15 K, x1 = 0.1499	1187.4	1459.8
318.15 K, x1 = 0.3013	1232.82	1411.4
318.15 K, x1 = 0.3994	1247.58	1393.8
318.15 K, x1 = 0.4973	1257.33	1381.7
318.15 K, x1 = 0.5999	1265.05	1371.7
318.15 K, x1 = 0.6988	1270.58	1364.7
318.15 K, x1 = 0.8953	1278.27	1353.8
318.15 K, x1 = 1	1280.95	1349
328.15 K, x1 = 0.05002	1096.85	1515.2
328.15 K, x1 = 0.09974	1148.65	1470.6
328.15 K, x1 = 0.1499	1179.14	1440.5
328.15 K, x1 = 0.3013	1224.48	1389.8
328.15 K, x1 = 0.3994	1239.35	1372.1
328.15 K, x1 = 0.4973	1249.21	1359.9
328.15 K, x1 = 0.5999	1257.03	1350.1
328.15 K, x1 = 0.6988	1262.64	1343.2
328.15 K, x1 = 0.8953	1270.44	1332.5
328.15 K, x1 = 1	1273.16	1327.8
338.15 K, x1 = 0.05002	1089.38	1502.3
338.15 K, x1 = 0.09974	1140.47	1452.7
338.15 K, x1 = 0.1499	1170.71	1420.3
338.15 K, x1 = 0.3013	1216.08	1368.1
338.15 K, x1 = 0.3994	1231.09	1350.4
338.15 K, x1 = 0.4973	1241.08	1338.3
338.15 K, x1 = 0.5999	1249.02	1328.7
338.15 K, x1 = 0.6988	1254.72	1321.6
338.15 K, x1 = 0.8953	1262.66	1311.2
338.15 K, x1 = 1	1265.44	1307
